Measurements as given in the supplement of paper PMC10307832.

Key:
Experiment in all cases: relative viability (nuclei count vs DMSO), 5 days (fraction); higher = more cells survive
Sulindac + Olaparib = compound: CC1=C(CC(=O)O)c2cc(F)ccc2/C1=C\c1ccc([S+](C)[O-])cc1 [Sulindac] + O=C(c1cc(Cc2n[nH]c(=O)c3ccccc23)ccc1F)N1CCN(C(=O)C2CC2)CC1 [Olaparib] (partner 8 µM)
In short: (§1)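 Dosing by pin tool came one day after lung cancer cell lines were seeded in 1536-well plates, using either one drug or a fixed anchor-drug dose plus five library-drug doses (not always all listed) in √10 steps. After 5 days, nuclei were counted on 4× images. Relative viability is treated-well nuclei count divided by vehicle-well nuclei count, and values are medians of duplicate plates.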

Sulindac + AZD7762 = compound: CC1=C(CC(=O)O)c2cc(F)ccc2/C1=C\c1ccc([S+](C)[O-])cc1 [Sulindac] + NC(=O)Nc1cc(-c2cccc(F)c2)sc1C(=O)N[C@H]1CCCNC1 [AZD7762] (partner 0.2 µM)
In short: as §1

[1] = compound: CN[C@@H]1C[C@H]2O[C@@](C)([C@@H]1OC)n1c3ccccc3c3c4c(c5c6ccccc6n2c5c31)C(=O)NC4 [Staurosporine] + O=C(CCCCCCC(=O)Nc1ccccc1)NO [Vorinostat] (partner 1 µM)
In short: as §1

Sulindac + Vorinostat = compound: CC1=C(CC(=O)O)c2cc(F)ccc2/C1=C\c1ccc([S+](C)[O-])cc1 [Sulindac] + O=C(CCCCCCC(=O)Nc1ccccc1)NO [Vorinostat] (partner 1 µM)
In short: as §1

Cell Line	relative viability (Sulindac + Olaparib; first compound 0.08 µM)	relative viability (Sulindac + Olaparib; first compound 0.253 µM)	relative viability (Sulindac + Olaparib; first compound 0.8 µM)	relative viability (Sulindac + Olaparib; first compound 2.53 µM)	relative viability (Sulindac + Olaparib; first compound 8 µM)	relative viability (Sulindac + AZD7762; first compound 0.08 µM)	relative viability (Sulindac + AZD7762; first compound 0.253 µM)	relative viability (Sulindac + AZD7762; first compound 2.53 µM)	relative viability (Sulindac + AZD7762; first compound 8 µM)	relative viability ([1]; first compound 0.005 µM)	relative viability ([1]; first compound 0.01581 µM)	relative viability ([1]; first compound 0.05 µM)	relative viability ([1]; first compound 0.1581 µM)	relative viability ([1]; first compound 0.5 µM)	relative viability (Sulindac + Vorinostat; first compound 0.08 µM)	relative viability (Sulindac + Vorinostat; first compound 0.253 µM)	relative viability (Sulindac + Vorinostat; first compound 0.8 µM)	relative viability (Sulindac + Vorinostat; first compound 2.53 µM)	relative viability (Sulindac + Vorinostat; first compound 8 µM)
NCI-H1703	0.39	0.526	0.404	0.529	0.554	0.129	0.14	0.111	0.17										
EBC-1	0.846	0.643	0.545	0.748	0.816														
NCI-H1792	0.429	0.449		0.453	0.725	0.98	0.647	0.766	0.703										
NCI-H1650	0.827	0.723	0.705	0.742	0.757					0.379	0.414	0.242	0.195	0.0786	0.586	0.54	0.605	0.486	0.557
SK-MES-1	0.733	0.825	0.56	0.712	0.772					0.47	0.27	0.18	0.154	0.127	1.43	1.25	1.09	1.23	1.16
NCI-H1299	0.98	1.04	0.889	0.962	1.03														
A549	0.468	0.303		0.331	0.352														
NCI-H2228	0.941	0.804	0.499	0.637	0.516					0.449	0.188	0.126	0.0779	0.0804	0.588	0.831	0.497	0.981	0.865
NCI-H2023	0.486	0.511		0.441	0.554					0.313	0.14	0.0786	0.0748	0.0408	0.945	0.879	0.582	0.652	0.685
Calu-6	0.618	0.624	0.449	0.531	0.711														
COR-L23	0.348	0.449	0.291	0.323	0.376					0.159	0.147	0.0727	0.0709	0.0639	0.453	0.471	0.399	0.499	0.561
NCI-H520	0.36	0.328	0.302	0.313	0.283					0.726	0.498	0.384	0.191	0.148	0.897	0.914	0.686	0.682	0.778
